Experimental data from the RepoRT retention time repository.

Test: HILIC, Waters Atlantis Premier BEH Z-HILIC, 100 × 2.1 mm, 1.7 µm, 40 °C, 0.17 mL/min, estimated dead time 1.3 min; A: water + 20 mM ammonium carbonate + 5 µM medronic acid; B: 10% water + 90% acetonitrile + 2 mM ammonium carbonate + 0.5 µM medronic acid; gradient (min/%B) 0/100 18/60 18.1/20 21.5/20 22/100 23.5/100 25.5/100
Conditions: stereoisomer not certain

LC retention time | SMILES
9.75 min | O=P(O)(O)OCC(O)CO (centres undefined) [Glycerol-3-phosphate]
9.15 min | NC(CCC(=O)O)C(=O)O (centres undefined) [Glutamic acid]
6.63 min | CCC(=O)OC(CC(=O)[O-])C[N+](C)(C)C (centres undefined) [carnitine-C3]
9.68 min | CC(=O)NC1C(OP(=O)(O)OP(=O)(O)OCC2OC(n3ccc(=O)[nH]c3=O)C(O)C2O)OC(CO)C(O)C1O (centres undefined) [UDP-GlcNAc]
4.87 min | O=C1CC(C(=O)O)NC(=O)N1 (centres undefined) [dihydroorotic acid]
14.5 min | O=C(O)CC(C(=O)O)C(O)C(=O)O (centres undefined) [Isocitric acid]
4.21 min | Nc1ncnc2c1ncn2C1OC(CO)C(O)C1O (centres undefined) [Adenosine]
5.97 min | CCC(C)C(N)C(=O)O (centres undefined) [Isoleucine]
9.07 min | O=C(O)CCC(=O)C(=O)O [2-Oxoglutaric acid]
10.4 min | NC(=O)CCC(N)C(=O)O (centres undefined) [Glutamine]
8.45 min | NC(=O)C1=CN(C2OC(COP(=O)(O)OP(=O)(O)OCC3OC(n4cnc5c(N)ncnc54)C(O)C3O)C(O)C2O)C=CC1 (centres undefined) [NADH]
8.86 min | Nc1ncnc2c1ncn2C1OC(COP(=O)(O)O)C(O)C1O (centres undefined) [AMP]
5.72 min | CC(C)CC(N)C(=O)O (centres undefined) [Leucine]
13 min | Nc1ncnc2c1ncn2C1OC(COP(=O)(O)OP(=O)(O)OP(=O)(O)O)C(O)C1O (centres undefined) [ATP]
13.8 min | C=C(OP(=O)(O)O)C(=O)O [PEP]
10.7 min | NC(=O)c1ccc[n+](C2OC(COP(=O)(O)OP(=O)(O)OCC3OC(n4cnc5c(N)ncnc54)C(O)C3O)C(O)C2O)c1 (centres undefined) [NAD]
11.9 min | CC(C)(COP(=O)(O)OP(=O)(O)OCC1OC(n2cnc3c(N)ncnc32)C(O)C1OP(=O)(O)O)C(O)C(=O)NCCC(=O)NCCS (centres undefined) [CoenzymeA]

LC retention time | SMILES
15.3 min | Nc1nc2c(ncn2C2OC(COP(=O)(O)OP(=O)(O)OP(=O)(O)O)C(O)C2O)c(=O)[nH]1 (centres undefined) [GTP]
13.9 min | O=C(O)CC(O)(CC(=O)O)C(=O)O [Citric acid]
4.19 min | O=C(O)CCCCC1SCC2NC(=O)NC21 (centres undefined) [Biotin]
9.16 min | O=C(O)CCC(=O)O [Succinic Acid]
10.5 min | CC(=O)SCCNC(=O)CCNC(=O)C(O)C(C)(C)COP(=O)(O)OP(=O)(O)OCC1OC(n2cnc3c(N)ncnc32)C(O)C1OP(=O)(O)O (centres undefined) [Acetyl-CoA]
15.2 min | O=P(O)(O)OCC1OC(O)(COP(=O)(O)O)C(O)C1O (centres undefined) [Fructose-1,6-bisphosphate]
7.55 min | OCC1OC(O)C(O)C(O)C1O (centres undefined) [Hexose]
12.2 min | O=C(O)C(CO)OP(=O)(O)O (centres undefined) [Phosphoglyceric acid A]
7.12 min | Cc1cc2nc3c(=O)[nH]c(=O)nc-3n(CC(O)C(O)C(O)COP(=O)(O)OP(=O)(O)OCC3OC(n4cnc5c(N)ncnc54)C(O)C3O)c2cc1C (centres undefined) [FAD]
2.96 min | CC(O)C(=O)O (centres undefined) [Lactic Acid]
9.81 min | O=C(O)CCC(O)C(=O)O (centres undefined) [2-hydroxy glutaric acid]
9.76 min | O=C(CO)COP(=O)(O)O [Triose phosphate]
11 min | Nc1ncnc2c1ncn2C1OC(COP(=O)(O)OP(=O)(O)O)C(O)C1O (centres undefined) [ADP]
9.73 min | C[N+](C)(C)CC(O)CC(=O)[O-] (centres undefined) [Carnitine]
10.9 min | O=C(CO)C(O)C(O)C(O)COP(=O)(O)O (centres undefined) [Fructose 6-phosphate]
13.4 min | NC(=O)c1ccc[n+](C2OC(COP(=O)(O)OP(=O)(O)OCC3OC(n4cnc5c(N)ncnc54)C(OP(=O)(O)O)C3O)C(O)C2O)c1 (centres undefined) [NADP]
12.4 min | O=P(O)(O)OCC1OC(O)C(O)C(O)C1O (centres undefined) [Glucose-6-phosphate]
